Data reported in patent US20050266106A1, “Use of fermented wheat germ extract as anti-inflammatory agent” (priority 2002, published 2005).

Tested on: adjuvant arthritis (AA)
Assay: histological studies of joints of AA rats
Type: in vivo
Procedure: The affected joints of the right hind foot pad together with the epiphyses of the bones and the surrounding fibrous and muscular tissues were fixed in buffered neutral 4% formalin. Decalcification was performed by using EDTA and the samples were embedded into paraffin. 8 μm thin longitudinal sections were cut and the sections were stained with hemotoxiline (H) and eosine (E). In the selected positive control and in the treated cases an immunoperoxidase reaction was performed to show CD4 and CD8 positive T-lymphocytes. The used antibody was the product of Santa Cruz (Santa Cruz, Calif., USA), applied in 1:100 dilution.
There was no significant difference between the groups receiving 24-hour and 14-day pretreatment, respectively.

C[C@@H]1C[C@H]2[C@@H]3CCC4=CC(=O)C=C[C@]4(C)[C@@]3(F)[C@@H](O)C[C@]2(C)[C@@]1(O)C(=O)CO [Dexamethasone]
Histological grade (average 1 to 3) of inflammatory infiltrates (2 × 0.05 mg/kg/day, 14-day pretreatment): 1.2
Histological grade (average 1 to 3) of inflammatory infiltrates (2 × 0.05 mg/kg/day, 24-hour pretreatment): 1.4

COc1ccc2c(c1)c(CC(=O)O)c(C)n2C(=O)c1ccc(Cl)cc1 [Indomethacin]
Histological grade (average 1 to 3) of inflammatory infiltrates (2 × 0.5 mg/kg/day, 14-day pretreatment): 1.2
Histological grade (average 1 to 3) of inflammatory infiltrates (2 × 0.5 mg/kg/day, 24-hour pretreatment): 1.0
